Where two headings read alike, the source gives them in different places.
Assay: Pharmacokinetics of rivaroxaban in rats, alone and after multiple doses of almonertinib
Assay type: in vivo, Sprague-Dawley (SD) rats
Details: for AUC(0-inf) / Cmax / Tmax / CL/F / MRT last / MRT inf / Vd/F: po; for CL/F: read-out: CLz/F (converted); for MRT last: read-out: MRT0-t; for MRT inf: read-out: MRT0-∞; for Vd/F: read-out: Vz/F; for half-life: read-out: t1/2z (converted)
Description: Analytes were measured using UPLC-MS/MS, which was equipped with an LC-30A ultra-performance liquid chromatography (Shimadzu, Kyoto, Japan) and Sciex Triple Quad 5,500 tandem triple quadrupole mass spectrometer (AB Sciex, Framingham, MA, United States). Chromatographic separation was performed using an XSelect HSS T3 column (2.1 mm × 100 mm, 2.5 µm, Waters, Milford, MA, United States) at 40°C by gradient elution. The mobile phase consisted of water (A) and acetonitrile (0.1% formic acid, B). The elution procedure was as follows: 0–1.0 min, 50% B; 1.0–1.5 min, 50%→98% B; 1.5–3.0 min, 98% B; 3.0–3.1 min, 98%→50% B; 3.1–4.1 min, 50% B. The flow rate was 0.35 mL min^−1, and the injection volume was 6 µL.
The positive ion mode with multiple reaction detection was used. […] The mass spectrometer conditions, including delustering potential (DP) and collision energy (CE) of the compounds, are shown in Table 1. Other parameters of the mass spectrometer were as follows: ion source gas 1, 60.0 psi; ion source gas 2, 50.0 psi; curtain gas, 25.0 psi; source temperature, 500°C; ion spray voltage, 5,500 V.
Protein precipitation was used to process the plasma samples. 5 μL of mixed IS working solution, 50 µL of the plasma samples, and 150 µL of acetonitrile were vortex-mixed for 1.0 min. Then, the mixture was centrifuged at 13,000 × g for 10 min; 100 µL of 50% acetonitrile-water was added to 100 µL of supernatant, vortex-mixed, and centrifuged again. The supernatant was transferred to a 96-well plate for sample analysis.
Healthy male Sprague-Dawley (SD) rats weighing 250 ± 20 g were purchased from Beijing Huafukang Biotechnology Co., Ltd. (Beijing, China). The license number is SCXK (Beijing) 2019–0008. The study was approved and supervised by the Animal Ethics Committee of Hebei General Hospital (Shijiazhuang, China) (No. 2023024). Adaptive feeding (sufficient food and water) was performed for 1 week before the experiment. All the rats were kept under suitable conditions (12 h dark-light diurnal cycle, appropriate temperature at 23°C–25°C, relative humidity of 50% ± 10%). All rats were fasted for 12 h before starting the experiments while still given water.
Sixty healthy rats were randomly divided into ten groups (n = 6). […] Blood samples were centrifuged at 3,500 g for 10 min, and then the supernatant was gathered and stored in a −80°C refrigerator. After, rat intestine, kidney and liver tissues were harvested for molecular analysis on the ninth or fifth day after treatment with the corresponding drugs for each group. The tissues were placed immediately at −80°C.
DAS 2.1.1 Software (Mathematical Pharmacology Professional Committee of China, Shanghai, China) was applied to calculate pharmacokinetic parameters using non-compartmental analysis. SPSS 25.0 statistical software (SPSS Inc., Chicago, IL, United States) was applied to statistically analyze the main pharmacokinetic parameters, including AUC, Cmax, Tmax, t1/2, CLz/F, Vz/F, and MRT. Statistical comparisons were conducted using a analysis of variance, t-test or nonparametric rank-sum test depending on the data type; p-value <0.05 was deemed statistically significant.

[1] = male, Sprague-Dawley, rat, plasma, 1 mg/kg, rats, oral rivaroxaban 1 mg/kg after almonertinib 15 mg/kg for nine days (group 6), mean ± SD, n = 6
[2] = male, Sprague-Dawley, rat, plasma, 2 mg/kg, rats, oral rivaroxaban 2 mg/kg after almonertinib 15 mg/kg for nine days (group 5), mean ± SD, n = 6
[3] = male, Sprague-Dawley, rat, plasma, 2 mg/kg, rats, oral rivaroxaban 2 mg/kg alone (group 1), mean ± SD, n = 6
[4] = rats, oral rivaroxaban 2 mg/kg after almonertinib 15 mg/kg for nine days (group 5), mean ± SD, n = 6
[5] = rivaroxaban 1 mg/kg with multiple doses of almonertinib (group 6) compared to group 1, rats
[6] = rivaroxaban 2 mg/kg with multiple doses of almonertinib (group 5) compared to group 1, rats

increase of AUC of rivaroxaban (after a half dose reduction of rivaroxaban, multiple doses of almonertinib, rats (discussion)): ~1.9 fold
increase of AUC of rivaroxaban (co-administration with almonertinib for multiple doses, rats (discussion, AUC not specified further)): more than 3.0 fold
AUC(0-inf) [1]: 2230 ng·h/mL
Cmax [1]: 457 ± 101 ng/mL
Tmax [1]: 2.08 ± 0.49 h
CL/F [1]: 7.83 mL/min/kg
MRT last [1]: 4.1 ± 0.41 h
MRT inf [1]: 4.3 ± 0.47 h
Vd/F [1]: 2.83 ± 0.55 L/kg
AUC(0-inf) [2]: 3540 ng·h/mL
Cmax [2]: 862 ± 110 ng/mL
Tmax [2]: 2.21 ± 0.95 h
CL/F [2]: 10 mL/min/kg
MRT last [2]: 3.94 ± 0.56 h
MRT inf [2]: 4.12 ± 0.6 h
Vd/F [2]: 3.75 ± 0.72 L/kg
AUC(0-inf) [3]: 797 ± 169 ng·h/mL
Cmax [3]: 200 ± 38 ng/mL
Tmax [3]: 0.92 ± 0.3 h
CL/F [3]: 43.7 mL/min/kg
MRT last [3]: 4.72 ± 0.57 h
MRT inf [3]: 6.09 ± 1.45 h
Vd/F [3]: 26.4 ± 18 L/kg
AUC(0-t) (male, Sprague-Dawley, rat, plasma, rats, oral rivaroxaban 1 mg/kg after almonertinib 15 mg/kg for nine days (group 6), mean ± SD, n = 6, read-out: AUC0-t): 2220 ng·h/mL
half-life (male, Sprague-Dawley, rat, plasma, rats, oral rivaroxaban 1 mg/kg after almonertinib 15 mg/kg for nine days (group 6), mean ± SD, n = 6): 4.3 ± 0.91 h
AUC(0-t) (male, Sprague-Dawley, rat, plasma, rats, oral rivaroxaban 2 mg/kg alone (group 1), mean ± SD, n = 6, read-out: AUC0-t): 764 ± 164 ng·h/mL
half-life (male, Sprague-Dawley, rat, plasma, rats, oral rivaroxaban 2 mg/kg alone (group 1), mean ± SD, n = 6): 6.84 ± 3.46 h
AUC(0-t) [4]: 3,511.15 ± 783.84 μg/L*h
t1/2z [4]: 4.47 ± 0.80 h
Tmax of rivaroxaban longer than control [5]: 1.26 fold
decrease of CLz/F of rivaroxaban [5]: 4.57 fold
increase of AUC0-t of rivaroxaban [5]: 1.90 fold
Tmax of rivaroxaban longer than control [6]: 1.40 fold
decrease of CLz/F of rivaroxaban [6]: 3.37 fold
increase of AUC0-t of rivaroxaban [6]: 3.60 fold
increase of AUC0-∞ of rivaroxaban [6]: 3.44 fold
Structure (SMILES): O=C(NC[C@H]1CN(c2ccc(N3CCOCC3=O)cc2)C(=O)O1)c1ccc(Cl)s1 [rivaroxaban, Rivaroxaban]
